According to patent US5049673A, “Fluorescent indicator dyes for calcium working at long wavelengths” (The Regents of the University of California, priority 1987, dated 1991):
Like-named read-outs stand apart in the source and are kept apart here.

Columns and labels:
[1] = pH 7.60, 0.12 M ionic strength, 20°; read-out: Apparent dissociation constant for the Mg^2+ complex (including monoprotonated form); cited from earlier work
[2] = pH 7.03, 100 mM KCl, 20° C; read-out: Apparent dissociation constant for the Ca^2+ complex; cited from earlier work
[3] = room temperature, 0.1 M KCl, no added Mg^2+; read-out: Ca^2+ dissociation constant (Kd) used for FIG. 6; cited from earlier work
[4] = Calibration of [Ca2+] increases produced by UV photolysis of nitr-5 or nitr-7; settings: results not shown
Description: The most obvious difference between the present chelators and the previous tetracarboxylate Ca^2+ chelators is in their wavelengths of fluorescence excitation and emission. The new indicators' similarity to fluoresceins and rhodamines make them optically compatible with almost any fluorometer, fluorescence microscope, or flow cytometer already used for immunofluorescence detection. The fluorescein analogs fluo-1, -2, and -3 can be excited by incandescent illumination or the prominent 488 nm line of an […]. The rhodamine analogs rhod-1 rhod-2 are suited to incandescent illumination, the 531 nm line of a krypton-ion laser, or the 546 nm line of a mercury arc. By contrast, the earlier dyes quin-2 and fura-2 are best excited at 340-350 or 380-390 nm from a xenon lamp. Indo-1 does best with 350-360 nm from a xenon arc or the low-power UV lines of argon or krypton lasers. Optical elements for these UV wavelengths are preferably reflective or are made from quartz, glasses with enhanced UV transmission, or very thin ordinary glass. Plastics or thick (>1 mm) ordinary glass elements generally give too much absorbance or autofluorescence or both. By contrast, even these cheap optical materials are compatible with blue or green excitation.

| Compound | Kd [1] [µM] | Kd [2] [µM] | Kd [3] [µM] | Effect of excitation wavelengths on "caged" calcium [4] |
| --- | --- | --- | --- | --- |
| O=C(O)CN(CCOCCOCCN(CC(=O)O)CC(=O)O)CC(=O)O [EGTA, ethylene glycol bis(-beta-aminoethyl ether)-N,N,N',N'-tetraacetic acid] | 6000 | 0.327 |  |  |
| Cc1ccc(N(CC(=O)O)CC(=O)O)c(OCCOc2cc3cc(-c4ncc(C(=O)O)o4)oc3cc2N(CC(=O)O)CC(=O)O)c1 [fura-2] |  |  | 0.135 | the excitation wavelengths began to photolyze the "caged" calcium |
